Read-outs that look alike come from different tables or passages of the source.
Columns and labels:
SvelOBP1 [1] = assay: Competitive fluorescence binding assay (displacement of 1-NPN); parameters: species or system Sympiezomias velatus; settings: for IC50: 2 μM recombinant SvelOBP1/1-NPN, ligand 0-16 μM, 20 mM Tris-HCl pH7.4, three replicates, read-out: IC50 (ligand concentration replacing 50% of initial fluorescence of SvelOBP1/1-NPN mixture)
Procedure: (§1) The fluorescent probe 1-N-phenyl-naphthylamine (1-NPN) was used to evaluate the binding affinity of SvelOBP1 protein to different ligands. Forty-three host plant volatiles from leaves of jujube trees were selected as putative ligands (Table 2). Fluorescence-based ligand binding assays were performed on an F-2700 fluorescence spectrophotometer (Hitachi, Tokyo, Japan). The excitation wavelength was 337 nm, and the emission spectra were in the range from 370 to 550 nm. First, all tested ligands and 1-NPN were dissolved in chromatographic methanol and diluted to 1 mM as the stock solution. Second, the recombinant protein was diluted to 2 μM with 20 mM Tris-HCl (pH7.4), and 2 mL of the protein solution was placed in a 1 cm light path quartz cuvette.
(§2) The dissociation constants K1-NPN of 1-NPN to SvelOBP1 were calculated by GraphPad Prism 8.0 software with non-linear regression for the one site-specific binding method. The inhibitory constant (Ki) of each ligand binding to SvelOBP1 was calculated with Equation (1). IC50 is the ligand concentration replacing 50% of the initial fluorescence intensity of the SvelOBP1/1-NPN mixture. [1-NPN] represents the free concentration of 1-NPN. […] (1) Ki=IC50/(1+[1−NPN]/K1−NPN)

SvelOBP1 [2] = assay: Binding of fluorescent probe 1-NPN to SvelOBP1 (titration, Scatchard plot); parameters: species or system Sympiezomias velatus; settings: 2 μM SvelOBP1 titrated with 1-NPN 0-16 μM, pH7.4; read-out: dissociation constant (Kd) of 1-NPN
Procedure: as §1, §2

SvelOBP15 = molecular target: SvelOBP15; parameters: method as in PMID 35711318; settings: cited from earlier work
[3] = Ki=IC50/(1+[1-NPN]/K1-NPN), 2 μM SvelOBP1/1-NPN, pH7.4, mean ± SEM, read-out: Ki (inhibitory constant)
[4] = class in words by Ki, read-out: binding affinity class

SMILES	IC50 (SvelOBP1 [1]; mean ± SEM) [µM]	Ki (SvelOBP1 [1]; [3]) [µM]	also measured
CC12CCC(CC1)C(C)(C)O2 [1,3,3-trimethyl-2-oxabicyclo [2.2.2]octane]	13.81 ± 0.13	11.48 ± 0.11	
CC(=O)c1ccc(C)c(C)c1 [1-(3,4-dimethylphenyl)ethanone]	> 16		
CCc1ccc(C(C)=O)cc1 [1-(4-ethylphenyl)ethanone]	13.1 ± 0.16	10.9 ± 0.13	Ki (SvelOBP1 [1]; [4]): 10 to 16 µM
c1ccc(Nc2cccc3ccccc23)cc1 [1-NPN, 1-N-phenyl-naphthylamine]			Kd (SvelOBP1 [2]): 4.92 ± 0.04 µM
C=C(C)C1CC=C(C)CC1 (stereo not drawn) [1-methyl-4-prop-1-en-2-ylcyclohexene]	13.11 ± 0.02	10.9 ± 0.01	
C=C1C2CCC(C2)C1(C)C (stereo not drawn) [2,2-dimethyl-3-methylidenebicyclo [2.2.1]heptane]	> 16		
O=C1CCCC1C1CCCC1 (stereo not drawn) [2-cyclopentylcyclopentan-1-one]	> 16		
C=CCc1ccc(O)c(OC)c1 [2-methoxy-4-prop-2-enylphenol]	> 16		
CC1=CCC(C(C)C)C=C1 (stereo not drawn) [2-methyl-5-propan-2-ylcyclohexa-1,3-diene]	11.69 ± 0.07	9.71 ± 0.06	
CC(C)=Cc1ccccc1 [2-methylprop-1-enylbenzene]	> 16		
CC(C)C=O [2-methylpropanal]	> 16		
CC1=CCC2C(C1)C2(C)C (stereo not drawn) [3,7,7-trimethylbicyclo [4.1.0]hept-3-ene]	14.56 ± 0.07	12.1 ± 0.06	
C=CC(C)=CCC=C(C)C [3,7-dimethylocta-1,3,6-triene]	11.13 ± 0.06	9.25 ± 0.05	
C=CC(C)(O)CCC=C(C)C (stereo not drawn) [3,7-dimethylocta-1,6-dien-3-ol]	13.6 ± 0.16	11.3 ± 0.13	
CC1=CC[C@H]2C[C@@H]1C2(C)C [(1S,5S)-2,6,6-trimethylbicyclo [3.1.1]hept-2-ene]	> 16		
C=C/C(C)=C/C/C=C(\C)CCC=C(C)C [(3E,6E)-3,7,11-trimethyldodeca-1,3,6,10-tetraene]		8.73 ± 0.09	
C=CC(C)(O)CC/C=C(\C)CCC=C(C)C (stereo not drawn) [(6E)-3,7,11-trimethyldodeca-1,6,10-trien-3-ol]	> 16		
CC/C=C\CCO [(Z)-hex-3-en-1-ol]		7.98 ± 0.08	Ki (SvelOBP1 [1]; [4]): 5 to 10 µM; Ki (SvelOBP15): > 16 µM
CCCCOC(C)=O [Butyl acetate]	13.2 ± 0.47	10.9 ± 0.39	
CCCCOC(=O)c1ccccc1C(=O)OCCCC [Dibutyl benzene-1,2-dicarboxylate]		6.66 ± 0.03	
CCCCC(=O)OCC [Ethyl pentanoate]	14.1 ± 0.31	11.7 ± 0.26	
COC(=O)c1ccccc1O [Methyl 2-hydroxybenzoate]	> 16		
OCc1ccccc1 [Phenylmethanol]	11.3 ± 0.27	9.4 ± 0.23	

Continued, in another order:

IC50 (SvelOBP1 [1]; mean ± SEM) [µM]	Ki (SvelOBP1 [1]; [3]) [µM]	SMILES	also measured
> 16		C=CC(=C)CCC=C(C)C [7-methyl-3-methylideneocta-1,6-diene]	
> 16		CC(C)=CCC/C(C)=C/CO [(2E)-3,7-dimethylocta-2,6-dien-1-ol]	
> 16		CC(C)=CCC/C(C)=C/C(=O)O [(2E)-3,7-dimethylocta-2,6-dienoic acid]	
14.4 ± 0.17	11.9 ± 0.14	CC(C)=CCC/C(C)=C/CC/C(C)=C/CO [(2E,6E)-3,7,11-trimethyldodeca-2,6,10-trien-1-ol]	
> 16		CC(C)=CCC/C(C)=C/CC/C(C)=C/CC/C=C(\C)CC/C=C(\C)CCC=C(C)C [(6E,10E,14E,18E)-2,6,10,15,19,23-hexamethyltetracosa-2,6,10,14,18,22-hexaene]	
> 16		C/C(=C\CO)CCCC(C)CCCC(C)CCCC(C)C (stereo not drawn) [(E)-3,7,11,15-tetramethylhexadec-2-en-1-ol]	
15.44 ± 0.14	12.83 ± 0.12	CCC/C=C/CO [(E)-hex-2-en-1-ol]	
> 16		CC(C)COC(=O)CCCCC(=O)OCC(C)C [Bis(2-methylpropyl) hexanedioate]	
> 16		CCCCCCCCCCCC [Dodecane]	
11.28 ± 0.1	9.37 ± 0.08	CCOC(=O)C(C)CC (stereo not drawn) [Ethyl 2-methylbutyrate]	
> 16		CCOC(=O)CC(C)C [Ethyl 3-methylbutanoate]	
> 16		C/C=C(\C)C(=O)OCC [Ethyl (E)-2-methylbut-2-enoate]	
14.2 ± 0.16	11.8 ± 0.13	CCCC(=O)OCC [Ethyl butyrate]	
14.1 ± 0.33	11.7 ± 0.27	CCCCCCCCCCCCCCCC(=O)O [Hexadecanoic acid]	Ki (SvelOBP1 [1]; [4]): 10 to 16 µM
15.18 ± 0.13	12.61 ± 0.11	C=CC(O)CCCCC (stereo not drawn) [Oct-1-en-3-ol]	
> 16		CCC/C=C/COC(C)=O [[(E)-hex-2-en-1-yl] acetate]	
14.51 ± 0.06	12.06 ± 0.05	CCC/C=C/COC(=O)CCCCC [[(E)-hex-2-enyl] hexanoate]	
13.4 ± 0.2	11.2 ± 0.16	CC/C=C\CCOC(=O)C(C)CC (stereo not drawn) [[(Z)-hex-3-enyl] 2-methylbutanoate]	
14.4 ± 0.16	11.9 ± 0.13	CC/C=C\CCOC(=O)CC(C)C [[(Z)-hex-3-enyl] 3-methylbutanoate]	
14.45 ± 0.11	12.01 ± 0.09	CC/C=C\CCOC(C)=O [[(Z)-hex-3-enyl] acetate]	
15.5 ± 0.9	12.9 ± 0.75	CC/C=C\CCOC(=O)CCC [[(Z)-hex-3-enyl] butanoate]	
